Our source for the IC50, CC50 and selectivity ratio values is ChEMBL document CHEMBL4261492, “Synthesis and in vitro study of novel borneol derivatives as potent inhibitors of the influenza A virus” (Medchemcomm, 2017).

The subject of data set [1] is Influenza A virus. Briefly: microbe, parasite or virus in culture. Particulars: A/Puerto Rico/8/1934(H1N1), MDCK.
For the next data set, the system named is MDCK. Put plainly: (§1) Cytotoxicity against MDCK cells after 48 hrs by MTT assay. It counts as cell-based, Canis lupus familiaris. The following applies: dog, mdck, 48 h. On the technique in general: Tetrazolium assays rely on reduction of a dye to a coloured formazan, in cell work by metabolically active cells.
A further data set is described as follows: in vitro. The following applies: dog, MDCK cells, Ratio CC50/EC50.
Data set [2] in a line: as §1. The format is cell-based, Canis lupus familiaris. Particulars: dog, MDCK cells.
Data set [3] relates to Influenza A virus. Particulars: mdck.

One may read the IC50 as the concentration that inhibits the measured activity by half. Low readings indicate greater potency, high ones weaker potency. In general, CC50 refers to the concentration at which the toxic effect on the cells reaches its halfway point. Higher therefore signals better tolerance by the cells.

Compound `CC1CCN(CCC(=O)O[C@@H]2C[C@@H]3CC[C@@]2(C)C3(C)C)CC1` came in with an IC50 in the data set on Influenza A virus [1] of 15.3 µM. The same compound had a CC50 in the data set on MDCK of 56.4 µM. In addition, the selectivity ratio in the data set “in vitro” worked out at 4.
`NC12CC3CC(CC(C3)C1)C2` [AMANTADINE] showed an IC50 in the data set on Influenza A virus [1] of 64.2 µM. The selectivity ratio in “in vitro” amounted to 4.
For `CC1(C)[C@H]2CC[C@]1(C)[C@H](OC(=O)CN1CCNCC1)C2`, 3.2 µM corresponded to half-maximal inhibition in the data set on Influenza A virus [1] (IC50). The CC50 at 48 h in data set [2] came to 51.6 µM. The selectivity ratio in “in vitro” stood at 16.
As for `CC1(C)[C@H]2CC[C@]1(C)[C@@H](OC(=O)CCN1CCOCC1)C2`, in the data set on Influenza A virus [1], 7.8 µM corresponded to half-maximal inhibition (IC50). This compound also returned a CC50 with MDCK of 508 µM. The selectivity ratio in “in vitro” came to 65.
Compound `CCCCN(CCCC)CC(=O)O[C@@H]1C[C@@H]2CC[C@@]1(C)C2(C)C` registered an IC50 in the data set with Influenza A virus [1] above 34.1 µM. In addition, in the data set on MDCK, half-maximal cytotoxicity (CC50) was put at 69.3 µM.
`CC1CCN(CC(=O)O[C@@H]2C[C@@H]3CC[C@@]2(C)C3(C)C)CC1` had an IC50 in the data set on Influenza A virus [1] of 10.2 µM. Further, it took 93.9 µM to reach half-maximal cytotoxicity in the data set on MDCK (CC50). For the same compound, the selectivity ratio in “in vitro” is 9.
For `CCOC(=O)N1CCN(CCC(=O)O[C@@H]2C[C@@H]3CC[C@@]2(C)C3(C)C)CC1` the same measures were above 98.4 µM, 150 µM and 2.
In turn, `CCOC(=O)C1=C[C@@H](OC(CC)CC)[C@H](NC(C)=O)[C@@H](N)C1` [OSELTAMIVIR] showed a CC50 with MDCK of 160 µM.
In the data set on Influenza A virus [1], `CC1(C)[C@H]2CC[C@]1(C)[C@H](OC(=O)CCN1CCNCC1)C2` displayed an IC50 of 6.8 µM. Also, the cytotoxic concentration (CC50) in the data set with MDCK is 12.6 µM. Also, the selectivity ratio in “in vitro” is 2.
Compound `CC1(C)[C@H]2CC[C@]1(C)[C@H](OC(=O)CCN1CCCCC1)C2` yielded an IC50 in the data set with Influenza A virus [1] of 7.8 µM. The compound further yielded a 50% cytotoxic concentration (CC50) with MDCK of 69.6 µM.
`CCCCN(CCCC)CCC(=O)O[C@@H]1C[C@@H]2CC[C@@]1(C)C2(C)C` registered an IC50 in the data set on Influenza A virus [1] of 7.1 µM. In the data set on MDCK, the CC50 was determined as 41.8 µM. Further, in the data set “in vitro”, the selectivity ratio came to 6.
`CCOC(=O)N1CCN(CC(=O)O[C@@H]2C[C@@H]3CC[C@@]2(C)C3(C)C)CC1`: inhibition in the data set on Influenza A virus [1] was half-maximal at 683 µM (IC50). In the data set on MDCK, this compound yielded a CC50 above 852 µM. The selectivity ratio in the data set “in vitro” was 1.
`CN1CCN(CC(=O)O[C@@H]2C[C@@H]3CC[C@@]2(C)C3(C)C)CC1` came in with an IC50 with Influenza A virus [1] of 7.1 µM. Besides, in data set [2], the CC50 at 48 h was 103 µM. In the data set “in vitro”, the selectivity ratio is 14.
Turning to `CC1(C)[C@H]2CC[C@]1(C)[C@@H](OC(=O)CN1CCOCC1)C2`, the IC50 in the data set on Influenza A virus [1] worked out at 73.7 µM. This compound gave a half-maximal cytotoxic concentration (CC50) with MDCK above 534 µM.
As to `CCOC(=O)CN1CCOCC1`, the midpoint of inhibition in the data set on Influenza A virus [1], the IC50, lay at 983 µM. In addition, the CC50 in the data set with MDCK was above 1730 µM.
`CCN1CCN(CC(=O)O[C@@H]2C[C@@H]3CC[C@@]2(C)C3(C)C)CC1` showed an IC50 in the data set on Influenza A virus [1] of 4.4 µM. This compound returned a CC50 at 48 h in data set [2] of 100 µM. Further, the selectivity ratio in “in vitro” was found to be 23.
In the data set with Influenza A virus [1], `CCN1CCN(CCC(=O)O[C@@H]2C[C@@H]3CC[C@@]2(C)C3(C)C)CC1` had an IC50 of 8.4 µM. The compound further had a CC50 with MDCK of 105 µM. Moreover, in the data set “in vitro”, the selectivity ratio came to 12.
For `CC1(C)[C@H]2CC[C@]1(C)[C@H](OC(=O)CN1CCOCC1)C2` the same measures were 7.1 µM, 580 µM and 82.
Compound `CC1(C)[C@H]2CC[C@]1(C)[C@H](OC(=O)CCN1CCCC1)C2` showed an IC50 in the data set on Influenza A virus [1] of 14.3 µM. The midpoint of cytotoxicity in the data set with MDCK, the CC50, lay at 125 µM. Further, in the data set “in vitro”, the selectivity ratio turned out to be 9.
Compound `CN1CCN(CCC(=O)O[C@@H]2C[C@@H]3CC[C@@]2(C)C3(C)C)CC1` displayed an IC50 in the data set with Influenza A virus [1] of 1.9 µM. This compound gave a CC50 in the data set on MDCK of 48.1 µM. For the same compound, the selectivity ratio in “in vitro” amounted to 25.
`CC(N)C12CC3CC(CC(C3)C1)C2` (configuration not stated) [RIMANTADINE] came in with an IC50 with Influenza A virus [1] of 67 µM. For the same compound, the selectivity ratio in the data set “in vitro” is 5.
Regarding `CC1(C)[C@H]2CC[C@]1(C)[C@H](OC(=O)CN1CCCCC1)C2`, in the data set with Influenza A virus [1], the IC50 was found to be 15.1 µM. The compound also showed a cytotoxic concentration (CC50) in the data set on MDCK of 138 µM. In the data set “in vitro”, the selectivity ratio worked out at 9.
Turning to `CC1(C)[C@H]2CC[C@]1(C)[C@@H](O)C2` (stereo in doubt; 22), in the data set with MDCK, the CC50 is above 974 µM. In the data set with Influenza A virus [3], the IC50 is above 974 µM.
As to `CC1(C)[C@H]2CC[C@]1(C)[C@@H](O)C2` (stereo in doubt; 1), the CC50 with MDCK was above 2140 µM.
The compound `CC1(C)[C@H]2CC[C@]1(C)[C@H](OC(=O)CCN1CCOCC1)C2` displayed an IC50 with Influenza A virus [1] of 12.2 µM. The CC50 with MDCK came to 552 µM. In “in vitro”, the selectivity ratio worked out at 45.
For `CC1(C)[C@H]2CC[C@]1(C)[C@H](OC(=O)CN1CCCC1)C2`, the IC50 in the data set on Influenza A virus [1] was 34 µM. This compound registered a CC50 with MDCK of 302 µM. In the data set “in vitro”, the selectivity ratio is 9.
In the data set with Influenza A virus [1], `COC(=O)CN1CCOCC1` had an IC50 above 1890 µM. The CC50 with MDCK was above 1890 µM.
The compound `NC(=O)c1ncn([C@@H]2O[C@H](CO)[C@@H](O)[C@H]2O)n1` [RIBAVIRIN] registered an IC50 in the data set with Influenza A virus [1] of 24.6 µM. In addition, the CC50 in the data set on MDCK is above 2000 µM. Moreover, the selectivity ratio in “in vitro” is above 81.
